Data taken from ChEMBL document CHEMBL1921674, “Novel tricyclic inhibitors of IKK2: discovery and SAR leading to the identification of 2-methoxy-N-((6-(1-methyl-4-(methylamino)-1,6-dihydroimidazo[4,5-d]pyrrolo[2,3-b]pyridin-7-yl)pyridin-2-yl)methyl)acetamide (BMS-066)” (Bioorg Med Chem Lett, 2011).
Active and inactive are the calls of the source. No cut-off for these calls is given here.

How the values were obtained:
[1] = biological target: Ephrin type-A receptor 1 (Homo sapiens) (UniProt P21709); test: Inhibition of EPHA1 at 10 uM
[2] = tested on: Mus musculus; test: Reduction in TNBS-induced colitis in intrarectally dosed mouse […] model assessed as decrease of colon length administered 1 day before TNBS challenge twice daily for 4 days; assay type: functional, organism-based
[3] = tested on: Mus musculus; test: Reduction in TNBS-induced colitis in mouse […] model assessed as decrease of body weight loss at 10 mg/kg, administered intrarectally 1 day before TNBS challenge twice daily for 4 days; assay type: functional, organism-based; design: dose 10 mg/kg
[4] = AUC in SJL mouse intestine at 8 mg/kg, iv after 8 hrs; assay type: ADME, organism-based; design: time < 8 hr, dose 8 mg/kg, route intravenous
[5] = Protein binding in human serum; assay type: ADME, cell-free; conditions: read-out: PB (converted)
[6] = Clearance in mouse at 2 mg/kg, iv; assay type: ADME, organism-based; design: dose 2 mg/kg, route intravenous; conditions: in vivo
[7] = Oral bioavailability in dog at 5 mg/kg; assay type: ADME, organism-based, Canis lupus familiaris; conditions: in vivo
[8] = Oral bioavailability in mouse at 3 mg/kg; assay type: ADME, organism-based; conditions: in vivo
[9] = Volume of distribution at steady state in dog at 1 mg/kg, iv; assay type: ADME, organism-based, Canis lupus familiaris; design: dose 1 mg/kg, route intravenous; conditions: in vivo, read-out: Vdss
[10] = tested on: Mus musculus; test: Reduction in TNBS-induced colitis in intrarectally dosed mouse […] model assessed as decrease of body weight loss administered 1 day before TNBS challenge twice daily for 4 days; assay type: functional, organism-based
[11] = tested on: Mus musculus; test: Reduction in TNBS-induced colitis in mouse […] model assessed as decrease of colon length at 10 mg/kg, administered intrarectally 1 day before TNBS challenge twice daily for 4 days; assay type: functional, organism-based; design: dose 10 mg/kg
[12] = biological target: hERG (KCNH2) (Homo sapiens, UniProt Q12809); test: Inhibition of human ERG at 30 uM by patch clamp assay
[13] = AUC in Sprague-Dawley rat intestine at 2 mg/kg, iv after 8 hrs; assay type: ADME, organism-based; design: time < 8 hr, dose 2 mg/kg, route intravenous
[14] = tested on: PBMC; test: Antiinflammatory activity in human PBMC assessed as inhibition of LPS-induced TNFalpha release treated for 5 mins before LPS challenge measured after 4 hrs by ELISA; assay type: functional, cell-based; conditions: Homo sapiens, PBMC
[15] = tested on: Blood; test: Antiinflammatory activity in human whole blood assessed as inhibition of LPS-induced TNFalpha release treated for 45 mins before LPS challenge measured after 6 hrs by ELISA; assay type: functional, tissue-based; conditions: Homo sapiens, Blood
[16] = AUC in SJL mouse plasma at 8 mg/kg, iv after 8 hrs; assay type: ADME, organism-based; design: time < 8 hr, dose 8 mg/kg, route intravenous
[17] = Oral bioavailability in Lewis rat at 10 mg/kg; assay type: ADME, organism-based; conditions: in vivo
[18] = Protein binding in rat serum; assay type: ADME, cell-free; conditions: read-out: PB (converted)
[19] = biological target: T1, Vascular endothelial growth factor receptor 2 (Homo sapiens, UniProt P35968); test: Inhibition of KDR
T1 sequence (P35968 whole entry): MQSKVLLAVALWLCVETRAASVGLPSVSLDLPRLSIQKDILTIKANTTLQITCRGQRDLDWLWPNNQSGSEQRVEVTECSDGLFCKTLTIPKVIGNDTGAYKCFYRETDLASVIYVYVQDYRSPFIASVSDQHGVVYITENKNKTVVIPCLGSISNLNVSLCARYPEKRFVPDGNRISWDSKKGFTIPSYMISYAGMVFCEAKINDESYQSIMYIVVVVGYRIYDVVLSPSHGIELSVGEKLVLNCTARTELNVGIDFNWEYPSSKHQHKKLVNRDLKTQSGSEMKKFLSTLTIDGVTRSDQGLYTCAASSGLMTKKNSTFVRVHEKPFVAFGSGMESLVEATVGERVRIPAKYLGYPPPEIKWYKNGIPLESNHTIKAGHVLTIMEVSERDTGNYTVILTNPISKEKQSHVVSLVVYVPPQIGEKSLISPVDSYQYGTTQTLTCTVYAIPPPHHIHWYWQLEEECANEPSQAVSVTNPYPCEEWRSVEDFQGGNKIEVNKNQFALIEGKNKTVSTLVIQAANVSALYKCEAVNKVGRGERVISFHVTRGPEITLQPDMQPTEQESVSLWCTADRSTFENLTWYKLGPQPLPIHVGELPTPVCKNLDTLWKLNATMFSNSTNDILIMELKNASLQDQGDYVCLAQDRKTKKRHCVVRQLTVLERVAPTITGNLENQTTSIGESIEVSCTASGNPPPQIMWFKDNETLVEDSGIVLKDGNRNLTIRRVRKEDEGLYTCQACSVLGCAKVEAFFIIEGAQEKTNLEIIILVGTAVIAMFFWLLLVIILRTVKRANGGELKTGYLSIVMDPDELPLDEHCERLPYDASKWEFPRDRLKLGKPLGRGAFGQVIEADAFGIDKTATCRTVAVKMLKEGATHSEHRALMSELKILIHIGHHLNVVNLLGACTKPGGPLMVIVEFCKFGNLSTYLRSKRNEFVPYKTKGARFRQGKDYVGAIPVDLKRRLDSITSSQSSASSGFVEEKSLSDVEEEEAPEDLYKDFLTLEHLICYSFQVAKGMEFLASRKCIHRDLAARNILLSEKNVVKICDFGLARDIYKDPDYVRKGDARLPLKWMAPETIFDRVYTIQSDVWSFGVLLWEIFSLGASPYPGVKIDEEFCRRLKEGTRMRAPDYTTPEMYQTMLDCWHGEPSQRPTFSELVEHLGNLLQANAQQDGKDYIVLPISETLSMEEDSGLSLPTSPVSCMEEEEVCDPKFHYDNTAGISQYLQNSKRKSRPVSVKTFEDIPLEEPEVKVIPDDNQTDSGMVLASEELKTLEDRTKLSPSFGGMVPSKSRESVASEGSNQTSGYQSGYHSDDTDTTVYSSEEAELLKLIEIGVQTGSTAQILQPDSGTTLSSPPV

[20] = Lipophilicity, log P of the compound by HPLC analysis; assay type: physicochemical
[21] = Volume of distribution at steady state in Lewis rat at 2 mg/kg, iv; assay type: ADME, organism-based; design: dose 2 mg/kg, route intravenous; conditions: in vivo, read-out: Vdss
[22] = tested on: Mus musculus; test: Reduction in TNBS-induced colitis in mouse […] model assessed as decrease of colon length at 3 mg/kg, administered intrarectally 1 day before TNBS challenge twice daily for 4 days; assay type: functional
[23] = biological target: T2, Protein-tyrosine kinase 6 (Homo sapiens, UniProt Q13882); test: Inhibition of BRK at 10 uM
[24] = biological target: T2, Protein-tyrosine kinase 6; test: Inhibition of BRK
[25] = AUC in SJL mouse liver at 8 mg/kg, iv after 8 hrs; assay type: ADME, organism-based; design: time < 8 hr, dose 8 mg/kg, route intravenous
[26] = Half life in mouse at 2 mg/kg, iv; assay type: ADME, organism-based; design: dose 2 mg/kg, route intravenous; conditions: in vivo
[27] = biological target: T1, Vascular endothelial growth factor receptor 2; conditions: 10 uM
Description: Inhibition of KDR at 10 uM

[28] = biological target: Cytochrome P450 1A2 (Homo sapiens, UniProt P05177); test: Inhibition of CYP1A2; assay type: ADME
[29] = Half life in dog at 1 mg/kg, iv; assay type: ADME, organism-based, Canis lupus familiaris; design: dose 1 mg/kg, route intravenous; conditions: in vivo
[30] = Dissociation constant, pKa of the compound; assay type: physicochemical
[31] = biological target: Cytochrome P450 2C9 (Homo sapiens, UniProt P11712); test: Inhibition of CYP2C9; assay type: ADME
Chain of Cytochrome P450 2C9 (P11712 whole entry): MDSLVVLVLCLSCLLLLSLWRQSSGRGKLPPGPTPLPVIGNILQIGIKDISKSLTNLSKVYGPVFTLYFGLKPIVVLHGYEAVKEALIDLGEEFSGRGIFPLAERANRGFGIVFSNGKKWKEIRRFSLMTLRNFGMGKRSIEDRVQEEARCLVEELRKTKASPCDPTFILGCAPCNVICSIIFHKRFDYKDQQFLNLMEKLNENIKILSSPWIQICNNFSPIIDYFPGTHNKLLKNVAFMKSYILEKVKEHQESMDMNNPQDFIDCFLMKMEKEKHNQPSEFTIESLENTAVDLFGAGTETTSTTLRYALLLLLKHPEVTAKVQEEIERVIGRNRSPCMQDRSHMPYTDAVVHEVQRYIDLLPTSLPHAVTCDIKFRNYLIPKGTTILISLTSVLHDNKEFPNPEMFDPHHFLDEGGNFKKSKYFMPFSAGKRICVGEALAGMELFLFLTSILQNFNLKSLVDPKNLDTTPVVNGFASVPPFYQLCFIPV

[32] = tested on: Mus musculus; test: Reduction in TNBS-induced colitis in mouse […] model assessed as decrease in inflammation histological score at 10 mg/kg administered intrarectally 1 day before TNBS challenge twice daily for 4 days by hematoxylin-eosin staining relative to control; assay type: functional, organism-based; design: dose 10 mg/kg
[33] = biological target: Ephrin type-B receptor 1 (Homo sapiens) (UniProt P54762); test: Inhibition of EphB1 at 10 uM
Chain of Ephrin type-B receptor 1 (Homo sapiens) (P54762 whole entry): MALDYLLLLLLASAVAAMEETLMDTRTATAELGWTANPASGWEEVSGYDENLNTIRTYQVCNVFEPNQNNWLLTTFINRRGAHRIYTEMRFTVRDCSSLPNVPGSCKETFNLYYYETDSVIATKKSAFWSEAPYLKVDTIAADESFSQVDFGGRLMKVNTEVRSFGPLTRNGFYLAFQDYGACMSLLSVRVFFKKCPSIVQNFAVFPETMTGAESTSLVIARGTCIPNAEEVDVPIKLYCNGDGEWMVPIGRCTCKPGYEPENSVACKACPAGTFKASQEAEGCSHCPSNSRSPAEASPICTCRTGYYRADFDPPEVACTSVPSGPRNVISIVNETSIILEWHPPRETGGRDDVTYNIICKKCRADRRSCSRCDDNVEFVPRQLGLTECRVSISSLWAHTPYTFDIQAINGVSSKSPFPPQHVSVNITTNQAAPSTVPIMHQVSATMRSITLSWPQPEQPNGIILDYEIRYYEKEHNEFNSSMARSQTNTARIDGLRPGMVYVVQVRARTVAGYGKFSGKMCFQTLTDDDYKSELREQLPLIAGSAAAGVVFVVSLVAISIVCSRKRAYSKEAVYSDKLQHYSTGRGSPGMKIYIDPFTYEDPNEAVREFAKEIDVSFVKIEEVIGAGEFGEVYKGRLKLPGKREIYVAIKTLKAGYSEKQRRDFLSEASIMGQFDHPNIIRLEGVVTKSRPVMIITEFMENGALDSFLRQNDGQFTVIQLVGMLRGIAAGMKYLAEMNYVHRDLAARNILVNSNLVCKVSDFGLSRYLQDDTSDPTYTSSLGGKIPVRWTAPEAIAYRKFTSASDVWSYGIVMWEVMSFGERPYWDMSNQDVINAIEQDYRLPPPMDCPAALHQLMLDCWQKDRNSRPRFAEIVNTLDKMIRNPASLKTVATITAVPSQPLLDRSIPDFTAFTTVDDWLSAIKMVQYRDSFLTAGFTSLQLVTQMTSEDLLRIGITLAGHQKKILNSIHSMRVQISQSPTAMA

[34] = biological target: Ephrin type-B receptor 1 (Homo sapiens, UniProt P54762); test: Inhibition of EphB1
Chain of Ephrin type-B receptor 1 (P54762 whole entry): as above

[35] = Half life in Lewis rat at 2 mg/kg, iv; assay type: ADME, organism-based; design: dose 2 mg/kg, route intravenous; conditions: in vivo
[36] = biological target: Inhibitor of nuclear factor kappa-B kinase subunit alpha (Homo sapiens, UniProt O15111); test: Inhibition of IKK1
[37] = biological target: Proto-oncogene tyrosine-protein kinase receptor Ret (Homo sapiens, UniProt P07949); test: Inhibition of RET at 10 uM
[38] = tested on: Mus musculus; test: Reduction in TNBS-induced colitis in mouse […] model assessed as decrease of body weight at 3 mg/kg, administered intrarectally 1 day before TNBS challenge twice daily for 4 days; assay type: functional; design: scale not given: the % may be the effect or the level left
[39] = Volume of distribution at steady state in mouse at 2 mg/kg, iv; assay type: ADME, organism-based; design: dose 2 mg/kg, route intravenous; conditions: in vivo, read-out: Vdss
[40] = biological target: Inhibitor of nuclear factor kappa-B kinase subunit beta (Homo sapiens) (UniProt O14920); test: Inhibition of human IKK2 at 10 uM
Chain of Inhibitor of nuclear factor kappa-B kinase subunit beta (Homo sapiens) (O14920 whole entry): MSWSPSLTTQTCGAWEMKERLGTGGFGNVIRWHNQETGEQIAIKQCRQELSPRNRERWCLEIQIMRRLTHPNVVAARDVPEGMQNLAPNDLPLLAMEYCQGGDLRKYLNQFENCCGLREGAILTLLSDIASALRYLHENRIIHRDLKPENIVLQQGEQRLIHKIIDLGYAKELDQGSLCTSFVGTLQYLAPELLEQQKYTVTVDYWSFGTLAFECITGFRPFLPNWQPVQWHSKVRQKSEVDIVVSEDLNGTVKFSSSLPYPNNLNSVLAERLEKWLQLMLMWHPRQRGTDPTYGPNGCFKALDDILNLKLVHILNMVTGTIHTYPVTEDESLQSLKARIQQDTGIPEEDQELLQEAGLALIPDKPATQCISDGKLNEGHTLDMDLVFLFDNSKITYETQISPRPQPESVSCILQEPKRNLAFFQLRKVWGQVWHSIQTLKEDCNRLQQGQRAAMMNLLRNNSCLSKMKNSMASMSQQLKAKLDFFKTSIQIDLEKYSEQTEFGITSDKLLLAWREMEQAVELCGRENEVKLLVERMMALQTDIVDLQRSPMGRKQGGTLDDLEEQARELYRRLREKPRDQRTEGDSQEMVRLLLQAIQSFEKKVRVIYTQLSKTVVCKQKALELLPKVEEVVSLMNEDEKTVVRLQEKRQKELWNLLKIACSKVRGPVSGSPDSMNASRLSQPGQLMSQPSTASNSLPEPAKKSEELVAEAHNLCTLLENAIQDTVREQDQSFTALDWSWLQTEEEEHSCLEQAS

[41] = AUC in Sprague-Dawley rat liver at 2 mg/kg, iv after 8 hrs; assay type: ADME, organism-based; design: time < 8 hr, dose 2 mg/kg, route intravenous
[42] = tested on: Blood; test: Antiinflammatory activity in mouse whole blood assessed as inhibition of LPS-induced TNFalpha release treated for 45 mins before LPS challenge measured after 6 hrs by ELISA; assay type: functional, tissue-based
[43] = Clearance in dog at 1 mg/kg, iv; assay type: ADME, organism-based, Canis lupus familiaris; design: dose 1 mg/kg, route intravenous; conditions: in vivo
[44] = Protein binding in mouse serum; assay type: ADME, cell-free; conditions: read-out: PB (converted)
[45] = AUC in dog at 5 mg/kg, po; assay type: ADME, organism-based, Canis lupus familiaris; design: dose 5 mg/kg, route oral; conditions: plasma
[46] = Cmax in dog at 5 mg/kg, po; assay type: ADME, organism-based, Canis lupus familiaris; design: dose 5 mg/kg, route oral; conditions: in vivo
[47] = Cmax in mouse at 3 mg/kg, po; assay type: ADME, organism-based; design: dose 3 mg/kg, route oral; conditions: in vivo
[48] = Cmax in Lewis rat at 10 mg/kg, po; assay type: ADME, organism-based; design: dose 10 mg/kg, route oral; conditions: in vivo
[49] = biological target: Cytochrome P450 3A4 (Homo sapiens, UniProt P08684); test: Inhibition of CYP3A4; assay type: ADME
[50] = tested on: Mus musculus; test: Reduction in TNBS-induced colitis in mouse […] model assessed as decrease in tissue damage at 10 mg/kg administered intrarectally 1 day before TNBS challenge twice daily for 4 days by hematoxylin-eosin staining relative to control; assay type: functional, organism-based; design: dose 10 mg/kg
[51] = biological target: Vascular endothelial growth factor receptor 3 (Homo sapiens, UniProt P35916); test: Inhibition of FLT4
Chain of Vascular endothelial growth factor receptor 3 (P35916 whole entry): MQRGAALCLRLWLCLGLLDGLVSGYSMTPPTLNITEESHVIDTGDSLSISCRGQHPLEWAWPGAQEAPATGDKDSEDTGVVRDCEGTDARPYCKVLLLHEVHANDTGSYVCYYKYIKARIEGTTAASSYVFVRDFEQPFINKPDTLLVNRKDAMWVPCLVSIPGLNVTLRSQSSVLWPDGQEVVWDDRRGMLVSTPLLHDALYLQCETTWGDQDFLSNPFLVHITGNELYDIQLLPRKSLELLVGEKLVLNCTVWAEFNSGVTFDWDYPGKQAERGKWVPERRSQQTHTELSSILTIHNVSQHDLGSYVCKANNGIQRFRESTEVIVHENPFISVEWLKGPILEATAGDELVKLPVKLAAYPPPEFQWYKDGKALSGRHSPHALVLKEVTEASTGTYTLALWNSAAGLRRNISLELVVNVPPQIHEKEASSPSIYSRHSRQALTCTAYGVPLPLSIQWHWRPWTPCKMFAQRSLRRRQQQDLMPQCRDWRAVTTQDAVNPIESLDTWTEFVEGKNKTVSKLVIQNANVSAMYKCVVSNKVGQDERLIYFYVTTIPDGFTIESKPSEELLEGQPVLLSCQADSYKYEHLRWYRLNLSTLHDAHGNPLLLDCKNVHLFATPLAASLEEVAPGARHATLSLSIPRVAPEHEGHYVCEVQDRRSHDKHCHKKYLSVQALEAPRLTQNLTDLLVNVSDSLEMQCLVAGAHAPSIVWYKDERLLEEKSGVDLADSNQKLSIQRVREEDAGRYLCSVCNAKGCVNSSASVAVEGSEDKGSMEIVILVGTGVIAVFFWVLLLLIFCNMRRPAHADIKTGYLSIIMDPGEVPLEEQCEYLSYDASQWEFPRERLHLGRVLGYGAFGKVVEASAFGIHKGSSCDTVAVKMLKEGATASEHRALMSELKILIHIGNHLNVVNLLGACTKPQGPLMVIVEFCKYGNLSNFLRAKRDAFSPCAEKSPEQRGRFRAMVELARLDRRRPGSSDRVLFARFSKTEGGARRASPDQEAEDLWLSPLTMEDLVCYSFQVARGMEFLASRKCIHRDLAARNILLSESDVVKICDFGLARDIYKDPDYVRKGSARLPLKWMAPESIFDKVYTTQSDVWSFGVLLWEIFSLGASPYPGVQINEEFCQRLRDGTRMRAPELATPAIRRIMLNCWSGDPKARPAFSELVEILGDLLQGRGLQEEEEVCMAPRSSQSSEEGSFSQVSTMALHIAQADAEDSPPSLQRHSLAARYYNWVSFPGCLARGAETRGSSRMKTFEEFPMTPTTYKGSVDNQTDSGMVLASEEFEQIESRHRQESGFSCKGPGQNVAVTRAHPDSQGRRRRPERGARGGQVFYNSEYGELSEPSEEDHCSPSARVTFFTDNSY

[52] = biological target: Inhibitor of nuclear factor kappa-B kinase subunit alpha (Homo sapiens) (UniProt O15111); test: Inhibition of IKK1 at 10 uM

inhibition [1]: > 75%
AUC at 8 h [4]: 1170 µM·h
fraction unbound [5]: 0.074
clearance [6]: 52 mL/min/kg
bioavailability [7]: 72%
bioavailability [8]: 79%
Vd [9]: 0.6 L/kg
AUC at 8 h [13]: 156 µM·h
IC50 [15]: 1000 nM
AUC at 8 h [16]: 18 µM·h
bioavailability [17]: 90%
fraction unbound [18]: 0.069
IC50 [19]: 1490 nM
logP [20]: 2
Vd [21]: 0.5 L/kg
inhibition [23]: > 75%
IC50 [24]: 310 nM
AUC at 8 h [25]: 81 µM·h
half-life [26]: 0.66 h
inhibition [27]: > 75%
IC50 [28]: > 40000 nM
half-life [29]: 3.3 h
pKa [30]: 2.5
IC50 [31]: 25000 nM
inhibition [33]: > 75%
IC50 [34]: 1110 nM
half-life [35]: 3.7 h
IC50 [36]: 4960 nM
inhibition [37]: > 75%
Vd [39]: 1.8 L/kg
inhibition [40]: > 75%
AUC at 8 h [41]: 16 µM·h
IC50 [42]: 1200 nM
clearance [43]: 3.1 mL/min/kg
fraction unbound [44]: 0.084
AUC [45]: 50 µM·h
Cmax [46]: 10.3 µM
Cmax [47]: 1.6 µM
Cmax [48]: 17.6 µM
IC50 [49]: > 40000 nM
IC50 [51]: 360 nM
inhibition [52]: > 75%
Structure (SMILES): CNc1nc2[nH]c(-c3cccc(CNC(=O)COC)n3)cc2c2c1ncn2C
Activity [2]: Dose-dependent effect
Activity [3]: Active
Activity [10]: Dose-dependent effect
Activity [11]: Active
inhibition at 30 µM [12]: 18%
IC50 [14]: 150 nM
Activity [22]: 1 cm
Activity [32]: Active
Activity [38]: 10%
Activity [50]: Active
